According to patent US11629171B2, “Beta-hairpin peptidomimetics” (POLYPHOR AG, priority 2017, dated 2023):
≈ marks a conversion by molar mass, not a printed value. Where a SMILES comes first, the peptide text is derived from it. Bridges are numbered along the chain shown (N, C = ends). Roman numbers before positions name the chains, in order. [ ]: non-standard residue; d: D form. The star is where a group is joined. Thr(ol) = C[C@@H](O)[C@H](N)CO; Tle = CC(C)(C)[C@H](N)C(=O)O; Hiv = CC(C)[C@H](O)C(=O)O; dDab = NCC[C@@H](N)C(=O)O; hCys = N[C@@H](CCS)C(=O)O; hSer = N[C@@H](CCO)C(=O)O; Dab = NCC[C@H](N)C(=O)O; Dap = NC[C@H](N)C(=O)O; Propionyl = CCC(=O)*; OiPr = CC(C)O*

Columns and labels:
Assay type in all cases: cell-based
[1] = tested on: Acinetobacter baumannii DSM 30008; conditions: DSM 30008
Outline: (§1)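 Standard CLSI microdilution testing: bacterial suspensions standardized against 0.5 McFarland to about 10^6 CFU/mL in MH-II broth meet serially halved peptide concentrations in broth containing 0.002% polysorbate 80; incubation lasts 18-20 h at 35° C before the MIC is scored.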

[2] = tested on: Klebsiella pneumoniae SSI #3010; conditions: SSI #3010
Outline: as §1

[3] = tested on: Enterobacter cloacae 848840; conditions: 848840
Outline: as §1

[4] = tested on: Escherichia coli ATCC 25922; conditions: ATCC 25922
Outline: as §1

Escherichia coli 926415 = conditions: 926415
Outline: as §1

[5] = tested on: Acinetobacter baumannii 872842; conditions: 872842
Outline: as §1

[6] = tested on: Klebsiella pneumoniae 968733; conditions: 968733
Outline: as §1

[7] = tested on: Pseudomonas aeruginosa ATCC 27853; conditions: ATCC 27853
Outline: as §1

[8] = tested on: human red blood cells (hRBC); test: Hemolysis; conditions: red cells of human, 1 h, 200
Outline: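 Percent lysis of human red cells was derived from OD540 of the supernatant, referenced to 2% Triton X-100, after a 1 h, 37° C incubation of 20% (v/v) cells with 200 μg/mL peptide.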

Row | MIC [1] [µg/mL] | MIC [2] [µg/mL] | MIC [3] [µg/mL] | MIC [4] [µg/mL] | MIC (Escherichia coli 926415) [µg/mL] | MIC [5] [µg/mL] | MIC [6] [µg/mL] | MIC [7] [µg/mL] | SMILES | Hemolysis at 200 μg/mL [8] [%]
1 | 0.03125 (≈ 0.0132 µM) | 0.125 (≈ 0.0527 µM) | 0.125 (≈ 0.0527 µM) | 0.125 (≈ 0.0527 µM) | 0.0625 (≈ 0.0264 µM) | 0.0625 (≈ 0.0264 µM) | 0.125 (≈ 0.0527 µM) | 0.25 (≈ 0.105 µM) | CC(C)C[C@@H]1NC(=O)[C@@H](CC(C)C)NC(=O)[C@H](CCN)NC(=O)[C@@H](NC(=O)[C@H](CN)NC(=O)[C@@H](NC(=O)[C@H](CCN)NC(=O)CC[C@@H]2NC(=O)[C@H](CN)NC(=O)[C@H](Cc3ccc(O)cc3)NC(=O)[C@@H](NC(=O)[C@@H](O)C(C)C)CSSC[C@@H](C(=O)N[C@H](CO)[C@@H](C)O)NC(=O)[C@H](C(C)(C)C)NC(=O)[C@H](CO)NC(=O)[C@H](Cc3c[nH]c4ccccc34)NC(=O)[C@H](CCN)NC(=O)[C@@H](CCN)NC2=O)[C@@H](C)O)CCNC(=O)[C@H]([C@@H](C)O)NC(=O)[C@H](CCN)NC(=O)[C@H](CCN)NC1=O [Ex. 111] (I: H-[Hiv]CY[Dap]E[dDab][Dab]WS[Tle]C[Thr(ol)] / II: [Dab]T[Dap][Dab][Dab][dL]L[Dab][Dab]T; disulfide I:2-I:11; amide I:5-II:N; lactam II:4-II:C) | <1
2 | 0.0625 (≈ 0.0263 µM) | 0.0625 (≈ 0.0263 µM) | 0.125 (≈ 0.0527 µM) | 0.0625 (≈ 0.0263 µM) | 0.0625 (≈ 0.0263 µM) | 0.0625 (≈ 0.0263 µM) | 0.125 (≈ 0.0527 µM) | 0.125 (≈ 0.0527 µM) | CC(C)C[C@@H]1NC(=O)[C@@H](CC(C)C)NC(=O)[C@H](CCN)NC(=O)[C@@H](NC(=O)[C@H](CN)NC(=O)[C@@H](NC(=O)[C@H](CCN)NC(=O)CC[C@@H]2NC(=O)[C@H](CN)NC(=O)[C@H](Cc3ccc(O)cc3)NC(=O)[C@@H](NC(=O)[C@@H](O)C(C)C)CSSC[C@@H](C(=O)N[C@H](CO)[C@@H](C)O)NC(=O)[C@H](C(C)(C)C)NC(=O)[C@H](CO)NC(=O)[C@H](Cc3c[nH]c4ccccc34)NC(=O)[C@H](CCO)NC(=O)[C@@H](CCN)NC2=O)[C@@H](C)O)CCNC(=O)[C@H]([C@@H](C)O)NC(=O)[C@H](CCN)NC(=O)[C@H](CCN)NC1=O [Ex. 112] (I: H-[Hiv]CY[Dap]E[dDab][hSer]WS[Tle]C[Thr(ol)] / II: [Dab]T[Dap][Dab][Dab][dL]L[Dab][Dab]T; disulfide I:2-I:11; amide I:5-II:N; lactam II:4-II:C) | <1
3 | 0.01562 (≈ 0.00651 µM) | 0.0625 (≈ 0.0261 µM) | 0.0625 (≈ 0.0261 µM) | 0.0625 (≈ 0.0261 µM) | 0.0625 (≈ 0.0261 µM) | 0.01562 (≈ 0.00651 µM) | 0.0625 (≈ 0.0261 µM) | 0.125 (≈ 0.0521 µM) | CC(=O)N[C@H](C(=O)N[C@H]1CSSC[C@@H](C(=O)N[C@@H](CO)C(N)=O)NC(=O)[C@H](C(C)(C)C)NC(=O)[C@H](CO)NC(=O)[C@H](Cc2c[nH]c3ccccc23)NC(=O)[C@H](CO)NC(=O)[C@@H](CCN)NC(=O)[C@H](CCC(=O)N[C@@H](CCN)C(=O)N[C@H](C(=O)N[C@@H](CN)C(=O)N[C@H]2CCNC(=O)[C@H]([C@@H](C)O)NC(=O)[C@H](CCN)NC(=O)[C@H](CCN)NC(=O)[C@H](CC(C)C)NC(=O)[C@@H](CC(C)C)NC(=O)[C@H](CCN)NC2=O)[C@@H](C)O)NC(=O)[C@H](CN)NC(=O)[C@H](Cc2ccc(O)cc2)NC1=O)C(C)C [Ex. 117] (I: Ac-VCY[Dap]E[dDab]SWS[Tle]CS-NH2 / II: [Dab]T[Dap][Dab][Dab][dL]L[Dab][Dab]T; disulfide I:2-I:11; amide I:5-II:N; lactam II:4-II:C) | 2
4 | 0.0625 (≈ 0.0259 µM) | 0.0625 (≈ 0.0259 µM) | 0.0625 (≈ 0.0259 µM) | 0.0625 (≈ 0.0259 µM) | 0.0625 (≈ 0.0259 µM) | 0.03125 (≈ 0.013 µM) | 0.125 (≈ 0.0518 µM) | 0.125 (≈ 0.0518 µM) | CCC(=O)N[C@H](C(=O)N[C@H]1CSSC[C@@H](C(=O)N[C@@H](CO)C(N)=O)NC(=O)[C@H](C(C)(C)C)NC(=O)[C@H](CO)NC(=O)[C@H](Cc2c[nH]c3ccccc23)NC(=O)[C@H](CO)NC(=O)[C@@H](CCN)NC(=O)[C@H](CCC(=O)N[C@@H](CCN)C(=O)N[C@H](C(=O)N[C@@H](CN)C(=O)N[C@H]2CCNC(=O)[C@H]([C@@H](C)O)NC(=O)[C@H](CCN)NC(=O)[C@H](CCN)NC(=O)[C@H](CC(C)C)NC(=O)[C@@H](CC(C)C)NC(=O)[C@H](CCN)NC2=O)[C@@H](C)O)NC(=O)[C@H](CN)NC(=O)[C@H](Cc2ccc(O)cc2)NC1=O)C(C)C [Ex. 119] (I: Propionyl-VCY[Dap]E[dDab]SWS[Tle]CS-NH2 / II: [Dab]T[Dap][Dab][Dab][dL]L[Dab][Dab]T; disulfide I:2-I:11; amide I:5-II:N; lactam II:4-II:C) | <1
5 | 0.0625 (≈ 0.0259 µM) | 0.0625 (≈ 0.0259 µM) | 0.25 (≈ 0.104 µM) | 0.125 (≈ 0.0518 µM) | 0.0625 (≈ 0.0259 µM) | 0.0625 (≈ 0.0259 µM) | 0.125 (≈ 0.0518 µM) | 0.125 (≈ 0.0518 µM) | CC(=O)N[C@H](C(=O)N[C@H]1CSSC[C@@H](C(=O)N[C@@H](CO)C(N)=O)NC(=O)[C@H](C(C)(C)C)NC(=O)[C@H](CO)NC(=O)[C@H](Cc2c[nH]c3ccccc23)NC(=O)[C@H](CCN)NC(=O)[C@@H](CCN)NC(=O)[C@H](CCC(=O)N[C@@H](CCN)C(=O)N[C@H](C(=O)N[C@@H](CN)C(=O)N[C@H]2CCNC(=O)[C@H]([C@@H](C)O)NC(=O)[C@H](CCN)NC(=O)[C@H](CCN)NC(=O)[C@H](CC(C)C)NC(=O)[C@@H](CC(C)C)NC(=O)[C@H](CCN)NC2=O)[C@@H](C)O)NC(=O)[C@H](CN)NC(=O)[C@H](Cc2ccc(O)cc2)NC1=O)C(C)C [Ex. 120] (I: Ac-VCY[Dap]E[dDab][Dab]WS[Tle]CS-NH2 / II: [Dab]T[Dap][Dab][Dab][dL]L[Dab][Dab]T; disulfide I:2-I:11; amide I:5-II:N; lactam II:4-II:C) | 1
6 | 0.0625 (≈ 0.0259 µM) | 0.125 (≈ 0.0518 µM) | 0.125 (≈ 0.0518 µM) | 0.0625 (≈ 0.0259 µM) | 0.125 (≈ 0.0518 µM) | 0.0625 (≈ 0.0259 µM) | 0.25 (≈ 0.104 µM) | 0.125 (≈ 0.0518 µM) | CC(=O)N[C@H](C(=O)N[C@H]1CCSSC[C@@H](C(=O)N[C@@H](CO)C(N)=O)NC(=O)[C@H](C(C)(C)C)NC(=O)[C@H](CO)NC(=O)[C@H](Cc2c[nH]c3ccccc23)NC(=O)[C@H](CO)NC(=O)[C@@H](CCN)NC(=O)[C@H](CCC(=O)N[C@@H](CCN)C(=O)N[C@H](C(=O)N[C@@H](CN)C(=O)N[C@H]2CCNC(=O)[C@H]([C@@H](C)O)NC(=O)[C@H](CCN)NC(=O)[C@H](CCN)NC(=O)[C@H](CC(C)C)NC(=O)[C@@H](CC(C)C)NC(=O)[C@H](CCN)NC2=O)[C@@H](C)O)NC(=O)[C@H](CN)NC(=O)[C@H](Cc2ccc(O)cc2)NC1=O)C(C)C [Ex. 121] (I: Ac-V[hCys]Y[Dap]E[dDab]SWS[Tle]CS-NH2 / II: [Dab]T[Dap][Dab][Dab][dL]L[Dab][Dab]T; disulfide I:2-I:11; amide I:5-II:N; lactam II:4-II:C) | <1
7 | 0.25 (≈ 0.102 µM) | 0.5 (≈ 0.205 µM) | 2 (≈ 0.819 µM) | 0.25 (≈ 0.102 µM) | 4 (≈ 1.64 µM) | 1 (≈ 0.41 µM) | 2 (≈ 0.819 µM) | 0.5 (≈ 0.205 µM) | CC(=O)N[C@H](C(=O)N[C@H]1CSSC[C@@H](C(=O)N[C@@H](CO)C(=O)OC(C)C)NC(=O)[C@H](C(C)(C)C)NC(=O)[C@H](CO)NC(=O)[C@H](Cc2c[nH]c3ccccc23)NC(=O)[C@H](CO)NC(=O)[C@@H](CCN)NC(=O)[C@H](CCC(=O)N[C@@H](CCN)C(=O)N[C@H](C(=O)N[C@@H](CN)C(=O)N[C@H]2CCNC(=O)[C@H]([C@@H](C)O)NC(=O)[C@H](CCN)NC(=O)[C@H](CCN)NC(=O)[C@H](CC(C)C)NC(=O)[C@@H](CC(C)C)NC(=O)[C@H](CCN)NC2=O)[C@@H](C)O)NC(=O)[C@H](CN)NC(=O)[C@H](Cc2ccc(O)cc2)NC1=O)C(C)C [Ex. 122] (I: Ac-VCY[Dap]E[dDab]SWS[Tle]CS-OiPr / II: [Dab]T[Dap][Dab][Dab][dL]L[Dab][Dab]T; disulfide I:2-I:11; amide I:5-II:N; lactam II:4-II:C) | 1
8 | 0.01562 (≈ 0.00651 µM) | 0.0625 (≈ 0.026 µM) | 0.0625 (≈ 0.026 µM) | 0.01562 (≈ 0.00651 µM) | 0.03125 (≈ 0.013 µM) | 0.03125 (≈ 0.013 µM) | 0.0625 (≈ 0.026 µM) | 0.0625 (≈ 0.026 µM) | CC(=O)N[C@H](C(=O)N[C@H]1CSSC[C@@H](C(=O)N[C@H](CO)[C@@H](C)O)NC(=O)[C@H](C(C)(C)C)NC(=O)[C@H](CO)NC(=O)[C@H](Cc2c[nH]c3ccccc23)NC(=O)[C@H](CO)NC(=O)[C@@H](CCN)NC(=O)[C@H](CCC(=O)N[C@@H](CCN)C(=O)N[C@H](C(=O)N[C@@H](CN)C(=O)N[C@H]2CCNC(=O)[C@H]([C@@H](C)O)NC(=O)[C@H](CCN)NC(=O)[C@H](CCN)NC(=O)[C@H](CC(C)C)NC(=O)[C@@H](CC(C)C)NC(=O)[C@H](CCN)NC2=O)[C@@H](C)O)NC(=O)[C@H](CN)NC(=O)[C@H](Cc2ccc(O)cc2)NC1=O)C(C)C [Ex. 123] (I: Ac-VCY[Dap]E[dDab]SWS[Tle]C[Thr(ol)] / II: [Dab]T[Dap][Dab][Dab][dL]L[Dab][Dab]T; disulfide I:2-I:11; amide I:5-II:N; lactam II:4-II:C) | <1
